From patent US20200368190A1, “METHODS OF TREATMENT” (Arena Pharmaceuticals, Inc., priority 2017, published 2020)

Assays:
[1] = Clinical Trial 2: randomized, double-blind, placebo-controlled study in individuals with severe Raynaud's; assay type: in vivo; details: titration scheme
Procedure: A randomized, double-blind, placebo-controlled study is conducted in individuals with severe Raynaud's. Individuals are administered Compound 1 using a titration scheme. Compound 1 is determined to be efficacious for the treatment and/or prevention of Raynaud's.

[2] = Clinical Trial 1: 22-week randomized, double-blind, placebo-controlled study with dose titration; assay type: in vivo
Procedure: A 22-week randomized, double-blind, placebo-controlled study with a dose titration period of up to 9 weeks was conducted. Sixty-one individuals were randomized 2:1 Compound 1 to placebo. Right Heart Catheterization (RHC) measurements were obtained prior to study Day 1 of the dose titration period and at Week 22. The following values were obtained and recorded: pulmonary artery pressure (PAP) (systolic, diastolic, and mean), heart rate (HR), right atrial pressure (RAP), pulmonary capillary wedge pressure (PCWP) right ventricular pressure (RVP) and cardiac output (CO), pulmonary vascular resistance (PVR), arterial and mixed venous oxygen saturation […] (if applicable). Systemic vascular resistance (SVR) was estimated from blood pressure measurements.
Primary efficacy endpoints for the study were: a) change from baseline in PVR after 22 weeks of treatment, and b) change from baseline in 6 MWD after 22 weeks of treatment. Compound 1 was administered as a capsule in 0.01, 0.02, 0.03, 0.04, and 0.10 mg dose strengths. The starting dose of Compound 1 was 0.01 mg twice daily. The dose of Compound 1 was titrated according to individual tolerability. If the initial dose was tolerated (0.01 mg twice daily), then the dose was increased once a week in the following fashion: 0.02 mg twice daily, 0.03 mg twice daily, 0.04 mg twice daily, 0.06 mg twice daily, 0.08 mg, 0.1 mg twice daily, 0.2 mg twice daily and 0.3 mg twice daily. The dose was optionally escalated to a possible maximum total daily dose of 0.6 mg (0.3 mg twice daily), pending tolerability.

[3] = intravenous; cited from earlier work
[4] = intravenous, over 9 weeks, cited from earlier work
[5] = oral, titrated to the highest tolerated dose; individuals with systemic sclerosis; cited from earlier work
[6] = after 22 weeks of treatment, capsule, titrated from 0.01 mg twice daily up to 0.3 mg twice daily

## O=C(O)COC[C@H]1CC[C@H](COC(=O)N(c2ccccc2)c2ccc(Cl)cc2)CC1 [Compound 1, 2-(((1r,4r)-4-(((4-chlorophenyl)(phenyl)carbamoyloxy)methyl)cyclohexyl)methoxy)acetic acid]
[1]
  efficacy for the treatment and/or prevention of Raynaud's: efficacious
[2]; 22-week study, titrated up to 0.6 mg total daily dose
  adverse events observed in the study: consistent with other prostacyclin treatments for the management of PAH
[2]; [6]
  6-minute walk distance (6MWD): numerical improvement
  change from baseline in pulmonary vascular resistance (PVR) compared to placebo (primary endpoint): statistically significant change from baseline

## CCCCC[C@H](O)/C=C/[C@@H]1[C@H]2C/C(=C/CCCC(=O)O)O[C@H]2C[C@H]1O [epoprostenol]
[3]
  frequency and duration of Raynaud phenomenon attacks: reduced frequency and duration
  loss in clinical response, time after the last infusion: 8-10 weeks

## CC#CCC(C)[C@H](O)/C=C/[C@@H]1[C@H]2C/C(=C/CCCC(=O)O)C[C@H]2C[C@H]1O (stereo partly drawn) [iloprost]
[4]; vs. 19.7% comparator
  improve severity score: 34.8%
[4]; vs. 22.2% comparator
  reduce weekly Raynaud phenomenon attacks: 39.1%

## CC(C)N(CCCCOCC(=O)NS(C)(=O)=O)c1cnc(-c2ccccc2)c(-c2ccccc2)n1 [selexipag]
[5]
  primary efficacy endpoint: reduction in the number of Raynaud's phenomenon attacks per week versus placebo: did not meet the primary efficacy endpoint
